Measured values from ChEMBL document CHEMBL4038335, “Neuroactive Steroids. 2. 3α-Hydroxy-3β-methyl-21-(4-cyano-1H-pyrazol-1'-yl)-19-nor-5β-pregnan-20-one (SAGE-217): A Clinical Next Generation Neuroactive Steroid Positive Allosteric Modulator of the (γ-Aminobutyric Acid)A Receptor” (J Med Chem, 2017).
Values after ≈ are worked out from the molar mass of the structure shown.

What was measured:
[1] = Protein binding in rat plasma at 10 uM after 6 hrs by equilibrium dialysis; type: ADME, cell-free; settings: read-out: PPB (converted)
[2] = Protein binding in mouse plasma at 10 uM after 6 hrs by equilibrium dialysis; type: ADME, cell-free; settings: read-out: PPB
[3] = Displacement of [35S]TBPS from GABA-A receptor in Sprague-Dawley rat cerebral cortex cell membranes after 90 mins in presence of GABA by liquid scintillation counting
[4] = target: GABA-A receptor; alpha-1/beta-2/gamma-2 (Homo sapiens) (UniProt P14867+P47870+P18507); test: (§1) Positive allosteric modulation of GABAA receptor alpha1beta2gamma2 (unknown origin) expressed in mouse LTK cells assessed as potentiation of GABA-mediated increase in channel current under holding potential at -80 mV at 0.01 to 10 uM preincubated for 30 secs followed by GABA stimulation for 2 secs by automated patch clamp assay relative to GABA; type: cell-based
[5] = target: Gamma-aminobutyric acid receptor subunit alpha-4/beta3/delta (Homo sapiens, UniProt O14764+P28472+P48169); test: as §1, with “alpha4beta3delta” for “alpha1beta2gamma2”, “CHO” for “mouse LTK”, “mV” for “mV at 0.01 to 10 uM”, “manual” for “automated”, “assay” for “assay relative to GABA”; type: cell-based
[6] = target: GABA-A receptor alpha-4/beta-3/delta (Homo sapiens, UniProt P28472+P48169+); test: as §1, with “alpha4beta3delta” for “alpha1beta2gamma2”, “CHO” for “mouse LTK”, “manual” for “automated”; type: cell-based; settings: 2 s
[7] = Lipophilicity, logD of compound at 20 uM at pH 7.4 by HPLC/MS-MS analysis; type: physicochemical; settings: buffer
[8] = Thermodynamic aqueous solubility of compound at 10 uM sonicated for 1 min followed by incubation for 1 hr by HPLC-MS/MS; type: physicochemical; settings: buffer; read-out: Therm_solubility
[9] = Clearance in human hepatic microsomes at 10 uM preincubated for 5 mins followed by NADPH addition measured over 60 mins by HPLC-MS/MS analysis; type: ADME, Microsome; settings: liver microsomes
[10] = Clearance in rat hepatic microsomes at 10 uM preincubated for 5 mins followed by NADPH addition measured over 60 mins by HPLC-MS/MS analysis; type: ADME, Microsome; settings: liver microsomes
[11] = Clearance in mouse hepatic microsomes at 10 uM preincubated for 5 mins followed by NADPH addition measured over 60 mins by HPLC-MS/MS analysis; type: ADME, Microsome; settings: liver microsomes
[12] = Clearance in Sprague-Dawley rat at 5 mg/kg, iv or 20 mg/kg, po measured up to 8 hrs post dose by LC/MS-MS analysis; type: ADME, organism-based; settings: in vivo
[13] = Clearance in CD1 mouse at 5 mg/kg, iv or 20 mg/kg, po measured up to 8 hrs post dose by LC/MS-MS analysis; type: ADME, organism-based; settings: in vivo
[14] = Oral bioavailability in Sprague-Dawley rat at 20 mg/kg measured up to 8 hrs post dose by LC/MS-MS analysis; type: ADME, organism-based; settings: in vivo
[15] = Oral bioavailability in CD1 mouse at 20 mg/kg measured up to 8 hrs post dose by LC/MS-MS analysis; type: ADME, organism-based; settings: in vivo
[16] = Ratio of drug level in Sprague-Dawley rat brain to plasma at 5 mg/kg, iv measured at 30 mins post dose by LC/MS-MS analysis; type: ADME, organism-based; settings: read-out: BPR
[17] = Oral bioavailability in Beagle dog at 20 mg/kg measured up to 8 hrs post dose by LC/MS-MS analysis; type: ADME, organism-based, Canis lupus familiaris; settings: in vivo
[18] = target: Cytochrome P450 1A2 (Homo sapiens, UniProt P05177); test: Inhibition of CYP1A2 (unknown origin); type: ADME
[19] = target: Cytochrome P450 2C9 (Homo sapiens, UniProt P11712); test: Inhibition of CYP2C9 (unknown origin); type: ADME
Chain of Cytochrome P450 2C9 (P11712 whole entry): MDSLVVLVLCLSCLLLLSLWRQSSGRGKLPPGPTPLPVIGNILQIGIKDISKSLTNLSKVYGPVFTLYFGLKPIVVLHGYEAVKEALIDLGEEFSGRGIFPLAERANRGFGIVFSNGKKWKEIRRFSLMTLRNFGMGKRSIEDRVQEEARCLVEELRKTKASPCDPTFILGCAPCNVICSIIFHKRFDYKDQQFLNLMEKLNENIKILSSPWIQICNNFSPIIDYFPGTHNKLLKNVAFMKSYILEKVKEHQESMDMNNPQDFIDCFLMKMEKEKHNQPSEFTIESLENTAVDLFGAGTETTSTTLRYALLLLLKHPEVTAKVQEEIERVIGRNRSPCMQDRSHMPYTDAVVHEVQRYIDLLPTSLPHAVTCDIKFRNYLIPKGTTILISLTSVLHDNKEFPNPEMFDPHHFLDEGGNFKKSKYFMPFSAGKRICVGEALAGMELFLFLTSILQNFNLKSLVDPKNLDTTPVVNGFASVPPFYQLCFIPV

[20] = target: Cytochrome P450 2C19 (Homo sapiens, UniProt P33261); test: Inhibition of CYP2C19 (unknown origin); type: ADME
[21] = target: Cytochrome P450 2D6 (Homo sapiens, UniProt P10635); test: Inhibition of CYP2D6 (unknown origin); type: ADME
[22] = target: Cytochrome P450 3A4 (Homo sapiens, UniProt P08684); test: Inhibition of CYP3A4 (unknown origin); type: ADME
Chain of Cytochrome P450 3A4 (P08684 whole entry): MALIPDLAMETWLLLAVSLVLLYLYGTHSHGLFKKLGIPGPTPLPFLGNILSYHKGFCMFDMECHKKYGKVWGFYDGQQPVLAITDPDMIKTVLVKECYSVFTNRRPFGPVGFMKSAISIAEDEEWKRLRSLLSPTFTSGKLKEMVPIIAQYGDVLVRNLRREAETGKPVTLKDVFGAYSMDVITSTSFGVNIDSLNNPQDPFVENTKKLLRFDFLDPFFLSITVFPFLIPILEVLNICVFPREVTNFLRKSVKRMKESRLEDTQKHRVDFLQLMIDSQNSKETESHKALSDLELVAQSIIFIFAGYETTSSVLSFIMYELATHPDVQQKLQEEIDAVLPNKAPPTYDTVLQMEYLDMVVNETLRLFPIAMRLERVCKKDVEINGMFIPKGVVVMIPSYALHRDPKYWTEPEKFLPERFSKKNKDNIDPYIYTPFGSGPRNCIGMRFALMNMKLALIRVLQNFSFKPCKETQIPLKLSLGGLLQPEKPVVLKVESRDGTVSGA

[23] = Clearance in dog hepatic microsomes at 10 uM preincubated for 5 mins followed by NADPH addition measured over 60 mins by HPLC-MS/MS analysis; type: ADME, Canis lupus familiaris, Liver, Microsome; settings: 1 h
[24] = Clearance in Beagle dog at 5 mg/kg, iv or 20 mg/kg, po measured up to 8 hrs post dose by LC/MS-MS analysis; type: ADME, organism-based, Canis lupus familiaris; settings: in vivo
[25] = Protein binding in dog plasma at 10 uM after 6 hrs by equilibrium dialysis; type: ADME, cell-free, Canis lupus familiaris; settings: read-out: PPB (converted)
[26] = Protein binding in human plasma at 10 uM after 6 hrs by equilibrium dialysis; type: ADME, cell-free; settings: read-out: PPB (converted)
[27] = target: Sodium channel protein type 5 subunit alpha (Homo sapiens, UniProt Q14524); test: Inhibition of Nav1.5 (unknown origin) by patch clamp assay
Chain of Sodium channel protein type 5 subunit alpha (Q14524 whole entry): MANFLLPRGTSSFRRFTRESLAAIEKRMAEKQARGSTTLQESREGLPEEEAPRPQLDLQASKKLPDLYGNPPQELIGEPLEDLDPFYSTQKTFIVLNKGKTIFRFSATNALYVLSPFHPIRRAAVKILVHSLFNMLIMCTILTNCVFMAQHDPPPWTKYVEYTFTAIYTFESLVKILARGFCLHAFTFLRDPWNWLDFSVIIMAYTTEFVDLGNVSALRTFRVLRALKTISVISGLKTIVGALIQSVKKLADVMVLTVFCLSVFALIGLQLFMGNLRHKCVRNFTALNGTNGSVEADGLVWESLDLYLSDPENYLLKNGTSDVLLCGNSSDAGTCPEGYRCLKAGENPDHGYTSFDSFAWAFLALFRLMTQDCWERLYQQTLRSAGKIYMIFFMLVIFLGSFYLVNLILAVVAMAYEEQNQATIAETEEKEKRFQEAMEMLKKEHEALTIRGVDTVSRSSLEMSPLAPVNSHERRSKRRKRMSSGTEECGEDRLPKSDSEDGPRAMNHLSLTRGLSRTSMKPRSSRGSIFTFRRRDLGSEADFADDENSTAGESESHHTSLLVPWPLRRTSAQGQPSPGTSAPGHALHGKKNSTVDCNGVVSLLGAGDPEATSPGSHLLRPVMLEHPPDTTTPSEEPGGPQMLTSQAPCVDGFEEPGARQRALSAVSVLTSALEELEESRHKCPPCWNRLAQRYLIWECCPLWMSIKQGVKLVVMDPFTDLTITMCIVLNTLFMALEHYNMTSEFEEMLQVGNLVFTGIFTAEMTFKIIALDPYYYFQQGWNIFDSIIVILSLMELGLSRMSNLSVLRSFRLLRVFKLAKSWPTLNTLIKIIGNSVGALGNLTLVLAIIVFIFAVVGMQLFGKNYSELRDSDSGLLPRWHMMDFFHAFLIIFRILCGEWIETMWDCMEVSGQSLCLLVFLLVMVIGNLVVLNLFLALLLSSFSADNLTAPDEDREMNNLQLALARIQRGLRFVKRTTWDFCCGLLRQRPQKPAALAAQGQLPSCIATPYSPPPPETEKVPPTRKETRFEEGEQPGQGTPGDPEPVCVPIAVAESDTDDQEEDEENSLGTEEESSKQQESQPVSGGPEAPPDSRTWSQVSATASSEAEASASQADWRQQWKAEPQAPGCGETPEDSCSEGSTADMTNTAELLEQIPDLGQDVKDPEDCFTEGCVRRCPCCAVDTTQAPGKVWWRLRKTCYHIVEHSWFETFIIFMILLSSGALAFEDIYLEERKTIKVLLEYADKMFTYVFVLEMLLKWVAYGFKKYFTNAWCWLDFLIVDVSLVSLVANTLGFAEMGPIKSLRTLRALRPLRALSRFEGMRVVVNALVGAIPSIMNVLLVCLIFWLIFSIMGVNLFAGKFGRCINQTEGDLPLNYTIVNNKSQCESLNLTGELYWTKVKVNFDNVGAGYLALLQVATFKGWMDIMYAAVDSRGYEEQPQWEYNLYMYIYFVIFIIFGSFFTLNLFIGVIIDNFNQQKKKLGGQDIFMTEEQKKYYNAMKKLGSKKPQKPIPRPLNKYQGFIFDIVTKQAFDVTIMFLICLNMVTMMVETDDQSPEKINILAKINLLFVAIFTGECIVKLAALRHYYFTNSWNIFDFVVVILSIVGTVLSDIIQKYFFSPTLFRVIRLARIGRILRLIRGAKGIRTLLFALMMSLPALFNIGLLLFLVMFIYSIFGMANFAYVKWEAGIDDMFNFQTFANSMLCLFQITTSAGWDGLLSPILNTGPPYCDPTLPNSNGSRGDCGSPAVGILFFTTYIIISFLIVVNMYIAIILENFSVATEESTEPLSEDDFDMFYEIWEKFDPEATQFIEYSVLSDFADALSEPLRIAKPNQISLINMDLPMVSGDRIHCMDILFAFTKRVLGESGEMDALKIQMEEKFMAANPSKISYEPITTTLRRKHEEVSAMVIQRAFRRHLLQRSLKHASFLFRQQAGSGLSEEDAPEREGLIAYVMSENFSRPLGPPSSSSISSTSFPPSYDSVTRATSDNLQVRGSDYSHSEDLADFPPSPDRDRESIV

[28] = target: Voltage-gated inwardly rectifying potassium channel KCNH2 (Homo sapiens, UniProt Q12809); test: Inhibition of human ERG by patch clamp assay
Chain of Voltage-gated inwardly rectifying potassium channel KCNH2 (Q12809 whole entry): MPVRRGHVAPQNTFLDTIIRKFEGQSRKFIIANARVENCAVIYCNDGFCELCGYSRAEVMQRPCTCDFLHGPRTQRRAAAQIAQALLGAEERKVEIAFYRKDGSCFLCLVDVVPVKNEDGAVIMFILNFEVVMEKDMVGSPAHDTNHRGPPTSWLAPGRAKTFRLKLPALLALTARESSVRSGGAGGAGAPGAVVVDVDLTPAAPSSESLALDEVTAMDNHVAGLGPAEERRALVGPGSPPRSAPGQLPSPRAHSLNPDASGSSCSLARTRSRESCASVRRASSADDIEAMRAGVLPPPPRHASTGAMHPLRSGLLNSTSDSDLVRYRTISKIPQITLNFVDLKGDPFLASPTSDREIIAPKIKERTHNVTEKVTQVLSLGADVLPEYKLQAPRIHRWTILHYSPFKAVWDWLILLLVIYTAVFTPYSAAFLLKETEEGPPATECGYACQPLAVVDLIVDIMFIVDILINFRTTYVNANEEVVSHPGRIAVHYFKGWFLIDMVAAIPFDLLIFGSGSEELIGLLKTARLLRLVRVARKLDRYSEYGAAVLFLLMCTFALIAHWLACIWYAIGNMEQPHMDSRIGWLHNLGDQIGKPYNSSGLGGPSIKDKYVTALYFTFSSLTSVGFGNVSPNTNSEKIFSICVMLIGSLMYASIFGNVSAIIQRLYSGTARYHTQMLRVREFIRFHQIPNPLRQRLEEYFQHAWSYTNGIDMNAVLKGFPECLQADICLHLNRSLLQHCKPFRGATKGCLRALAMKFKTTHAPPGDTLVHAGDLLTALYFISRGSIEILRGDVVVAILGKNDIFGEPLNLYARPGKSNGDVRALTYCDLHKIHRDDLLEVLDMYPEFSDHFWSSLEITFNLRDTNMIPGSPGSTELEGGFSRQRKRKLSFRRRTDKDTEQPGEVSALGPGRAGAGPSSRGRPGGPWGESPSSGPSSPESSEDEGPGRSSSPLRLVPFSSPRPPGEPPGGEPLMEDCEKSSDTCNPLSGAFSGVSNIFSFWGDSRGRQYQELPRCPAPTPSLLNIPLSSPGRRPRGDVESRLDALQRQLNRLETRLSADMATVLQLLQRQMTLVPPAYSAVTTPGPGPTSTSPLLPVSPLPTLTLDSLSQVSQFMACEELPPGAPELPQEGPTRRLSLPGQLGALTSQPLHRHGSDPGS

[29] = target: Voltage-gated potassium channel, IKs; KCNQ1(Kv7.1)/KCNE1(MinK) (Homo sapiens, UniProt P15382+P51787); test: Inhibition of KCNQ1/minK (unknown origin) by patch clamp assay
[30] = target: Voltage-dependent L-type calcium channel subunit alpha-1C (Homo sapiens, UniProt Q13936); test: Inhibition of Cav1.2 (unknown origin) by patch clamp assay
[31] = target: Kv channel-interacting protein 2/Potassium voltage-gated channel subfamily D member 3 (Homo sapiens, UniProt Q9NS61+Q9UK17); test: Inhibition of Kv4.3(unknown origin)/KChIP2.2 (unknown origin) by patch clamp assay
[32] = target: Potassium voltage-gated channel subfamily A member 5 (Homo sapiens, UniProt P22460); test: Inhibition of Kv1.5 (unknown origin) by patch clamp assay
[33] = target: Inward rectifier potassium channel 2 (Homo sapiens, UniProt P63252); test: Inhibition of Kir2.1 (unknown origin) by patch clamp assay
[34] = target: Potassium/sodium hyperpolarization-activated cyclic nucleotide-gated channel 2 (Homo sapiens, UniProt Q9UL51); test: Inhibition of HCN2 (unknown origin) by patch clamp assay
Chain of Potassium/sodium hyperpolarization-activated cyclic nucleotide-gated channel 2 (Q9UL51 whole entry): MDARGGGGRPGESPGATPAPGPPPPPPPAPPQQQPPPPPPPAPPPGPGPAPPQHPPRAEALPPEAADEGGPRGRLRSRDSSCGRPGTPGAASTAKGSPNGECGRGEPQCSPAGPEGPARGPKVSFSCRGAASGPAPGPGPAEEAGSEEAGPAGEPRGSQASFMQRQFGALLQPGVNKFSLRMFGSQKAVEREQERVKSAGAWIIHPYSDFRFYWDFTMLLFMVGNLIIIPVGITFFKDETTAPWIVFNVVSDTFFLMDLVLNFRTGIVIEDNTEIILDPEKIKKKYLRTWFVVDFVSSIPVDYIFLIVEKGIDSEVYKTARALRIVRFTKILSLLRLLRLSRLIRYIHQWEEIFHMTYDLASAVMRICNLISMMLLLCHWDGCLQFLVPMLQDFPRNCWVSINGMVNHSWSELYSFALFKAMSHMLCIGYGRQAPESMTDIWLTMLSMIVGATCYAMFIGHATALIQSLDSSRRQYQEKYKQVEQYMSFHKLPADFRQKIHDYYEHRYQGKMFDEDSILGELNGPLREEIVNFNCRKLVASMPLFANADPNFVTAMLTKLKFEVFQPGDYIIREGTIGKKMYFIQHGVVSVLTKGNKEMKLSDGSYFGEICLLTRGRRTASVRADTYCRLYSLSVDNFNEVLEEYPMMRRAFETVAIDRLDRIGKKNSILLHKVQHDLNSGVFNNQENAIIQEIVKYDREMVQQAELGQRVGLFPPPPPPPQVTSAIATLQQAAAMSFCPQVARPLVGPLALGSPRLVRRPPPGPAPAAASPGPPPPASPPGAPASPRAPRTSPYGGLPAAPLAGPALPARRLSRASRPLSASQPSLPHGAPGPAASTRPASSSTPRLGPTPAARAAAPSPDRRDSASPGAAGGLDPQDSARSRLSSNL

[35] = target: Sigma non-opioid intracellular receptor 1 (Homo sapiens) (UniProt Q99720); test: Displacement of [3H](+)pentazocine from human sigma1-receptor at 10 uM after 120 mins by scintillation counting
[36] = target: Glycine receptor subunit alpha-1 (Homo sapiens) (UniProt P23415); test: Binding affinity to human glycine alpha 1 receptor expressed in HEK293 cells at 10 uM by IonFlux based assay; type: cell-based
[37] = target: Transient receptor potential cation channel subfamily V member 1 (Homo sapiens) (UniProt Q8NER1); test: Antagonist activity at human TRPV1 expressed in CHOK1 cells assessed as inhibition of capsaicin-induced Ca2+ flux at 10 uM by spectrophotometric analysis; type: cell-based
[38] = target: Cytochrome P450 2B6 (Homo sapiens, UniProt P20813); test: Inhibition of CYP2B6 (unknown origin); type: ADME
[39] = system: Canis familiaris; test: Clearance in Beagle dog at 5 mg/kg, iv or 20 mg/kg, po measured up to 8 hrs post dose by LC/MS-MS analysis relative to hepatic blood flow; type: ADME, organism-based, Canis lupus familiaris; settings: in vivo
[40] = system: Mus musculus; test: Anticonvulsant activity in PTZ-induced seizure mouse model at 0.3 to 3 mg/kg, ip; type: functional
[41] = Clearance in mouse hepatocytes at 10 uM preincubated for 5 mins […] measured over 60 mins by HPLC-MS/MS analysis; type: ADME, cell-based, Hepatocyte; settings: read-out: CLH (converted)
[42] = Clearance in rat hepatocytes at 10 uM preincubated for 5 mins […] measured over 60 mins by HPLC-MS/MS analysis; type: ADME, cell-based, Hepatocyte; settings: 1 h
[43] = Clearance in dog hepatocytes at 10 uM preincubated for 5 mins […] measured over 60 mins by HPLC-MS/MS analysis; type: ADME, cell-based, Canis lupus familiaris, Hepatocyte; settings: 1 h
[44] = Clearance in human hepatocytes at 10 uM preincubated for 5 mins […] measured over 60 mins by HPLC-MS/MS analysis; type: ADME, cell-based, Hepatocyte; settings: 1 h

C[C@@]1(O)CC[C@H]2[C@H](CC[C@@H]3[C@@H]2CC[C@]2(C)[C@@H](C(=O)Cn4cc(C#N)cn4)CC[C@@H]32)C1 [ZURANOLONE]
fraction unbound at 6 h, 10 µM [1]: 0.012
fraction unbound at 6 h, 10 µM [2]: 0.01
IC50 [3]: 0.007 µM
Emax [4]: 473%
EC50 [5]: 0.299 µM
Emax [6]: 574%
logD at 20 µM [7]: 4.6
solubility thermodynamic at 1 h, 10 µM [8]: 2 µM (≈ 0.819 µg/mL)
CLhep predicted at 10 µM [9]: 3.33 mL/min/kg
CLhep predicted at 10 µM [10]: 36.7 mL/min/kg
CLhep predicted at 10 µM [11]: 70 mL/min/kg
clearance [12]: 23.3 mL/min/kg
clearance [13]: 25 mL/min/kg
bioavailability [14]: 32%
bioavailability [15]: 62%
Kp at 0.5 h [16]: 4.2
bioavailability [17]: 68%
IC50 [18]: > 30 µM
IC50 [19]: > 30 µM
IC50 [20]: > 30 µM
IC50 [21]: > 30 µM
IC50 [22]: > 30 µM
CLH [23]: 10 mL/min/kg
clearance [24]: 1.67 mL/min/kg
fraction unbound at 6 h, 10 µM [25]: 0.016
fraction unbound at 6 h, 10 µM [26]: 0.012
IC50 [27]: > 30 µM
IC50 [28]: > 30 µM
IC50 [29]: > 30 µM
IC50 [30]: > 30 µM
IC50 [31]: > 30 µM
IC50 [32]: > 30 µM
IC50 [33]: > 30 µM
IC50 [34]: > 30 µM
inhibition [35]: 88%
Activity [36]: 57%
inhibition [37]: 95%
IC50 [38]: > 30 µM
CL [39]: < 10%
MEC [40]: 85 nM
CLint scaled at 10 µM [41]: 102 mL/min/kg
CLH [42]: 17 mL/min/kg
CLH [43]: 10 mL/min/kg
CLH [44]: 15 mL/min/kg
